According to patent publication US7951359B2, “Compositions and methods for therapy or prevention of chemotherapy-induced neuropathy” (Merck Serono SA, priority 2004, dated 2011):
Where two headings read alike, the source gives them in different places.

What was measured:
[1] = rodents; cited from earlier work
[2] = tested on: cisplatin induced neuropathy; assay: Hot plate test, therapeutic treatment of established cisplatin neuropathy; type: in vivo, rat
[3] = tested on: cisplatin induced neuropathy; type: in vivo, rat
Description: The drug was diluted in 0.9% sterile aqueous solution of sodium chloride.
4-MC was diluted in 0.9% sterile aqueous solution of sodium chloride and injected daily via IP route from day 23 to the end of the experiment.
Electrophysiological tests described in Example 17, were carried out in parallel to the behavioral tests (described in the preceding example) in cisplatin-established neuropathy model. The objective was to assess the therapeutic effect of IL-6 in cisplatin-induced loss of fiber/nerve function.
(§1) Electrophysiological recordings were performed using a Neuromatic 2000M electromyograph (EMG) (Dantec, Les Ulis, France). Rats were anaesthetized by IP injection of 60 mg/kg ketamine chlorhydrate (Imalgene 500®, Rhône Merieux, Lyon, France). The normal body temperature was maintained around […] with a heating lamp and verified using a contact thermometer (Quick, Bioblock Scientific, Illkirch, France) placed on the tail surface.
(§2) Sensitive nerve conduction velocity (SNCV) was also recorded. The tail skin electrodes were placed as follows: a reference needle inserted at the base of the tail and an anode needle placed 30 mm away from the reference needle toward the extremity of the tail. A ground needle electrode was inserted between the anode and reference needles. The caudal nerve was stimulated with a series of 20 pulses (for 0.2 ms) at an intensity of 12.8 mA. The velocity was expressed in m/s.
(§3) H-wave reflex was recorded in the hind footpad muscle after stimulation of the sciatic nerve. A reference electrode and a ground needle were placed on the lower back of the rat. The sciatic nerve was stimulated with a single 0.2 ms pulse at supramaximal intensity. The amplitude (mV) of H wave and the proportion of animal lacking H wave response were the parameters studied.

[4] = tested on: cisplatin induced neuropathy; assay: Hot plate test in cisplatin-treated rats, co-administration; type: in vivo, rat
Description: The rat was placed inside a glass cylinder of 17 cm height and 21 cm diameter on a heating-plate maintained at 52° C. (Medite OTS 40, Microm, Francheville, Rhône, France). The animal behavior was observed, particularly the licking of a foot and the adjusted leap. The latency before licking a foot or before jumping to escape the heat (adjusted leap) was recorded. The time needed to feel the thermal pain is related to the thermal sensitivity and tends to increase when thermal sensitivity is altered.

[5] = tested on: cisplatin induced neuropathy; type: in vivo, rat; remark: listed apart in the source
Description: Electrophysiological monitoring in cisplatin-induced neuropathy model was carried out as described in Example 17. The objective was to assess the effect of co-administration with IL-6 in cisplatin-induced loss of fiber/nerve function.
as §1
Compound muscle action potential (CMAP) of M wave signal (or electrically evoked muscle potential) was recorded in the gastrocnemius muscle after stimulation of the sciatic nerve. M wave reflects the current developed during the action potential of muscle fibers. A reference electrode and an active needle were placed in the hind paw. A ground needle was inserted on the lower back of the rat. Sciatic nerve was stimulated with a single 0.2 ms pulse at supramaximal intensity. The […] of the motor wave was recorded and expressed in ms.
as §2, §3

[6] = tested on: breast (MCF7) tumor cell line; assay: Cell survival by acid phosphatase activity assay, MCF7; type: cell-based, human
Description: The human lung (SK-MES1) and breast (MCF7) tumor cell lines were obtained from ATCC. The cell lines were maintained in Dulbecco's MEM medium (Gibco; Invitrogen, Cergy-Pontoise, France, ref. 41965039) supplemented with 1% antibiotic/antimicotic mixture solution (Gibco, ref. 15240062), and 10% heat-inactivated foetal bovine serum (Gibco, ref. F7524, batch 92K3387). The cells were amplified in Nunc tissue culture flasks (80 cm2) in a humidified incubator at 37° C. with 5% CO2 in 95% air. Cultures were sub-cultured twice a week.
The enzymatic activity has been proven to be proportional to the number of living cells (Ueda et al.; 1994).
Three days after the last replication, tumor cells were seeded in 96 well-plates (TPP, VWR International, Fontenay-sous-bois, France) at a density of 1,500 cells (MCF7 line) or 3,000 cells (SK-MES1 line) per well, in a total volume of 100 μl/well and incubated overnight in a humidified incubator at 37° C. with 5% CO2 in 95% air. […] IL-6 (in buffer solution at 1.8 mg/ml, PH: 7) was immediately added at concentrations of 0, 3, 12, 50 or 200 ng/ml.
Four days after the initiation of the intoxication, acid phosphatase activity (Example 21) in each cell culture was assessed.
After removal of the culture medium, cells were rinsed with phosphate-buffered saline (PBS, Gibco, ref. 14190-094) and further incubated for 90 min at 37° C. in 100 μl of buffer containing 0.1 mol/l sodium acetate (pH 5.5), 0.1% Triton X100 (Sigma, ref. T9284) and 10 mmol/l p-nitrophenyl phosphate (Sigma, ref. N9389). Reaction was stopped by addition of 10 μl of 1 mol/l sodium hydroxide aqueous solution (Laboratoire de Produit Chimiques de la Robertsau, Strasbourg, France; ref. 28.252.293). Absorbance of the colored solution was measured at 405 nm in a microplate reader (Labsystems Multiskan Bichromatic, EST-LAB, Strasbourg, France).
The results were expressed as percentage of optical density of the control cell cultures. The heights of the columns represent mean±SEM of percentages of 5-6 wells from two independent cultures.

**Q.** For “IL-6: Recombinant human IL-6 produced in genetically engineered Chinese Hamster Ovary (CHO) cells”, which “active dose as thrombopoietic factor” value [1] is on record?
**A.** above 500 μg/kg

**Q.** And the “time of the first reaction to heat, significance” value ([2]; IL-6 10 μg/kg, 2 weeks after IL-6 treatment, p≦0.05)?
**A.** Significant results

**Q.** And the “time of the first reaction to heat” value ([2]; IL-6 3 and 10 μg/kg SC daily from day 23, two weeks after initiation, p≦0.05)?
**A.** overall reduction in the time of the first reaction

**Q.** And the “SNCV in cisplatin-treated animals” value ([3]; IL-6 3 μg/kg, after 1 week of treatment, p≦0.01)?
**A.** improved the SNCV

**Q.** And the “loss of H wave amplitude” value ([3]; IL-6 3 and 10 μg/kg SC daily from day 23, p≦0.05)?
**A.** reversed the loss of H wave amplitude

**Q.** And the “H wave amplitude loss recovered” value ([3]; IL-6, 1 week after initiation of treatment)?
**A.** about 50%

**Q.** And the “H wave amplitude recovery” value ([3]; IL-6, 2 weeks of treatment)?
**A.** full recovery

**Q.** And the “curing/ameliorating loss of fiber/nerve function compared with 4-MC” value ([3]; IL-6 vs 4-MC)?
**A.** more efficient than 4-MC

**Q.** What about the “delay of the first reaction to heat by cisplatin” value ([4]; IL-6 10 μg/kg SC daily) of the same compound?
**A.** fully prevented

**Q.** What about the “delay of the first reaction to heat by cisplatin” value ([4]; IL-6 0.3, 1, 3, 10 μg/kg SC daily, p≦0.05) of the same compound?
**A.** prevented/reduced delay of the first reaction to heat

**Q.** And the “loss of H wave amplitude by cisplatin” value ([5]; IL-6 10 μg/kg SC daily, throughout the experiment)?
**A.** fully prevented the loss of H wave amplitude

**Q.** What about the “loss of H wave amplitude by cisplatin” value ([5]; IL-6 0.3, 1, 3, 10 μg/kg SC daily) of the same compound?
**A.** reduce/prevent the loss of H wave amplitude

**Q.** What about the “SNCV in cisplatin treated rats” value ([5]; IL-6, especially at 3 and 10 μg/kg, after 5 weeks) of the same compound?
**A.** improve SNCV

**Q.** What about the “prevention of cisplatin-induced loss of fiber/nerve function compared with 4-MC” value ([5]; IL-6 vs 4-MC 10 μg/kg IP) of the same compound?
**A.** more effective in preventing cisplatin-induced loss of fiber/nerve function than 4-MC

**Q.** And the “survival of vincristine or cisplatine or carboplatin treated cells in the presence of IL-6” value ([6]; IL-6 3, 12, 50 or 200 ng/ml, p>0.05)?
**A.** did not change significantly

**Q.** What about the “effect of taxol on cell survival with IL-6” value ([6]; IL-6 3-200 ng/ml, p>0.05) of the same compound?
**A.** did not change the effect of taxol

**Q.** What about the “survival of cells intoxicated with carboplatin and taxol in the presence of IL-6” value ([6]; p>0.05) of the same compound?
**A.** remained unchanged

**Q.** With `N.N.[Cl][Pt][Cl]` [cisplatin, Cis-dichlorodiamine platinum] as the compound, how does the “hot plate first reaction to heat versus control” value ([2]; cisplatin alone, during and 3 weeks post-cisplatin) read?
**A.** significant delayed first reaction to heat

**Q.** And the “SNCV versus untreated control” value ([3]; rat, in vivo)?
**A.** significantly slower

**Q.** What about the “loss in H wave signal amplitude” value ([3]; rat, in vivo) of the same compound?
**A.** about 70%

**Q.** And the “hot plate first reaction to heat versus control” value ([4]; cisplatin alone, from 3 weeks)?
**A.** significant delayed first reaction to heat

**Q.** And the “SNCV versus non-treated control” value ([5]; rat, in vivo)?
**A.** significantly slow

**Q.** And the “reduction of H wave amplitude” value ([5]; rat, in vivo)?
**A.** about 80%

**Q.** And the “decrease in cell survival versus control” value ([6]; cisplatin (2.5 μM), carboplatin (25 μM), 4 days)?
**A.** about 50%
